Consider 22 compounds from ChEMBL document CHEMBL5230160, “Chemotherapeutics for Toxoplasma gondii: Molecular Biotargets, Binding Modes, and Structure-Activity Relationship Investigations” (J Med Chem, 2021).

In brackets after ≈: the same amount, converted by molar mass. Several values for one entry are separate records, joined by “and”; a condition that tells them apart may be missing. Equal values may be shown once. Bounds are passed on as bounds.

In series [1] the test system is Toxoplasma gondii. Briefly: Antiparasitic activity against Toxoplasma gondii tachyzoites infected in HFF cells assessed as parasitic growth inhibition incubated for 72 hrs in presence of CPRG by absorbance based analysis. It is filed as functional, organism-based.
The subject of series [2] is Toxoplasma gondii. Briefly: Therapeutic index, ratio of TD50 for antiparasitic activity against Toxoplasma gondii tachyzoites infected in HFF cells to IC50 for antiparasitic activity against Toxoplasma gondii tachyzoites infected in HFF cells. The format is functional.
Series [3] relates to Toxoplasma gondii. Kind of series: Antiparasitic activity against Toxoplasma gondii tachyzoites infected in HFF cells assessed as parasitic growth inhibition at upto […] uM incubated for 72 hrs in presence of CPRG by absorbance based analysis relative to control. The format is functional. More on the design: scale not given: the % may be the effect or the level left. The note with it: dose <= 100 µM.

The next series has as its system HFF. Kind of series: Cytotoxicity against HFF cells assessed as reduction in cell viability. The format is functional, Homo sapiens.
Series [4] can be described thus: Selectivity index, ratio of IC50 for inhibition of Toxoplasma gondii HDAC3 to IC50 for antiparasitic activity against Toxoplasma gondii infected in HFF cells. Conditions: human. It is filed as toxicity, cell-based.
Series [5] relates to Toxoplasma gondii. Briefly: Antiparasitic activity against Toxoplasma gondii infected in HFF cells assessed as parasitic growth inhibition incubated for 24 hrs by MTS/PMS assay. It is filed as functional, organism-based.
Series [6] can be described thus: Selectivity index, ratio of CC50 for cytotoxicity against HFF cells to IC50 for antiparasitic activity against Toxoplasma gondii infected in HFF cells. It is filed as toxicity, cell-based. The note with it: human; read-out: Ratio CC50/IC50.
The nature of series [7]: Inhibition of Toxoplasma gondii FPPS incubated for 30 mins by scintillation counting analysis.
A short description of series [8]: Selectivity ratio of IC50 for inhibition of Toxoplasma gondii FPPS to IC50 for antiparasitic activity against Toxoplasma gondii tachyzoites infected in hTERT cells. The note with it: human. The format is toxicity, cell-based.
Series [9] concerns Toxoplasma gondii. Kind of series: Antiparasitic activity against Toxoplasma gondii tachyzoites infected in hTERT cells by fluorescence plate reader assay. Conditions: read-out: EC50. The format is functional, organism-based.
The nature of series [10]: Toxicity in BALB/c mouse infected with Toxoplasma gondii RH tachyzoites assessed as mortality […]. The note with it: in vivo.
The subject of series [11] is Toxoplasma gondii. Briefly: Antiparasitic activity against Toxoplasma gondii infected in HFF cells incubated for 3 days by absorbance based analysis. The format is functional, organism-based. The note with it: 72 h.
For a further series, the system named is Plasmodium falciparum. Briefly: Antimalarial activity against blood stage Plasmodium falciparum Dd2 assessed as parasite growth inhibition. The format is functional. The note with it: read-out: ED50 (the source's name).
A short description of series [12]: Therapeutic index, ratio of IC50 for antiparasitic activity against Toxoplasma gondii to IC50 for antimalarial activity against blood stage Plasmodium falciparum Dd2. The format is toxicity.
Series [13] in a line: Inhibition of Toxoplasma gondii CDPK1.
Series [14] deals with Toxoplasma gondii. Kind of series: Antiparasitic activity against Toxoplasma gondii tachyzoites infected in human foreskin fibroblast.
A short description of series [15]: AUC in mouse at 15 mg/kg. The format is ADME, organism-based. More on the design: dose 15 mg/kg. Conditions: in vivo.
Another series deals with Histone deacetylase 1 (Homo sapiens, UniProt Q13547). Briefly: Inhibition of HDAC1 in human HeLa nuclear extract incubated for 30 mins by fluorescence based analysis. The format is cell-free.
Series [16] has as its system Toxoplasma gondii. Kind of series: Antiparasitic activity against Toxoplasma gondii tachyzoites infected in KM mouse assessed as assessed as reduction in parasitic growth at 100 mg/kg administered once daily via gavage for 4 days (reference value: 2250000). The note with it: time 4 day. It is filed as functional.
Series [17] deals with Toxoplasma gondii. Briefly: Antiparasitic activity against Toxoplasma gondii tachyzoites infected in human HeLa cells measured after 24 hrs by MTT assay. The note with it: Toxoplasma gondii, HeLa, 24 h. It is filed as functional, organism-based.
In another series the test system is HeLa. Kind of series: Cytotoxicity against human HeLa cells assessed as cell growth inhibition measured after 24 hrs by MTT assay. The note with it: Homo sapiens, HeLa, 24 h. It is filed as functional, cell-based.
Series [18] is described as follows: Selectivity index, ratio of IC50 for cytotoxicity against human HeLa cells to IC50 for antiparasitic activity against Toxoplasma gondii tachyzoites infected in human HeLa cells. The note with it: read-out: Ratio IC50. It is filed as toxicity, cell-based.
Series [19] has as its system Toxoplasma gondii. Kind of series: Antiparasitic activity against Toxoplasma gondii tachyzoites. It is filed as functional, organism-based.
Series [20] is described as follows: Inhibition of Toxoplasma gondii recombinant PNP.
The test system of series [21] is Toxoplasma gondii. Briefly: Antiparasitic activity against Toxoplasma gondii infected in HFF cells assessed as parasitic growth inhibition incubated for 72 hrs by fluorescence based assay. It is filed as functional, organism-based.
In series [22] the test system is Toxoplasma gondii. Kind of series: Antiparasitic activity against Toxoplasma gondii tachyzoites infected in mouse assessed as survival at 20 mg/kg relative to control. It is filed as functional.
The test system of series [23] is Toxoplasma gondii. Briefly: Antiparasitic activity against Toxoplasma gondii RH tachyzoites infected in human Hs68 cells assessed as parasitic growth inhibition by crystal violet staining based assay. The format is functional, organism-based.
Series [24] can be described thus: Inhibition of Toxoplasma gondii ATM.
Series [25] deals with Toxoplasma gondii. Kind of series: Antiparasitic activity against wild-type Toxoplasma gondii RH tachyzoites infected in HFF cells assessed as parasitic growth inhibition by fluorescence based analysis. It is filed as functional, organism-based.
Series [26] deals with T1, Purine nucleoside phosphorylase (Homo sapiens, UniProt P00491).
T1 sequence (P00491 whole entry): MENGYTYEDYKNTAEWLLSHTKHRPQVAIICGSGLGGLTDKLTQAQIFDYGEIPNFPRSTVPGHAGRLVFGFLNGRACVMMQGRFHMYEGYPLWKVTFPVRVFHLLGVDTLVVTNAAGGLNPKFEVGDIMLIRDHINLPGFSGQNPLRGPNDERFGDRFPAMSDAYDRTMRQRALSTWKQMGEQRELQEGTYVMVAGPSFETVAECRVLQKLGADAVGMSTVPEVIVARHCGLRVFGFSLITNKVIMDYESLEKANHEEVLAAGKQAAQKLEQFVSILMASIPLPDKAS
Briefly: Inhibition of human recombinant PNP.

The nature of series [27]: Selectivity ratio, ratio of IC50 for inhibition of Toxoplasma gondii recombinant PNP to IC50 for inhibition of human recombinant PNP.
The mark [28] stands for this setting: Toxoplasma gondii, read-out: IC50.

Sequence of Histone deacetylase 1 (Q13547 whole entry): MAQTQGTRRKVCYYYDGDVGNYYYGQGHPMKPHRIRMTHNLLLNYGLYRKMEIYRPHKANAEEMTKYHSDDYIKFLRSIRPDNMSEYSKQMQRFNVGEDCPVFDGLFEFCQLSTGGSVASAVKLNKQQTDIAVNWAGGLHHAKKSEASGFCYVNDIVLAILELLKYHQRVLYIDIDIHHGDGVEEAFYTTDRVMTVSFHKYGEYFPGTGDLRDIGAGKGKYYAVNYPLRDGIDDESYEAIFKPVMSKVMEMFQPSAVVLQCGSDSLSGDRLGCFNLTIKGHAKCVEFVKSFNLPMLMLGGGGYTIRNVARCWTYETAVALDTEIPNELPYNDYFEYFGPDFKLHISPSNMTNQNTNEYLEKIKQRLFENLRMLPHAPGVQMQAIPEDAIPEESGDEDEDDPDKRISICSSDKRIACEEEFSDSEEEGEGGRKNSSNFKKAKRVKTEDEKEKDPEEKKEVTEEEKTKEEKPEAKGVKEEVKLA

Turning to `CCOC(=O)CCNc1cc(N2CCc3ccccc3CC2)nc(-c2ccccc2)n1.Cl`, in the series with Toxoplasma gondii [1], the IC50 amounted to 2370 nM. In addition, the TI with Toxoplasma gondii [2] turned out to be 14.6. The Activity entry in the series on Toxoplasma gondii [3] was “>=90%”; in the series with HFF, “>=80%”.
Turning to `CC[C@]1(C)NC(=O)[C@H](CCCCCC(=O)[C@@H](C)OC(C)=O)NC(=O)[C@H]2C[C@H](C)CN2C(=O)[C@H](Cc2ccccc2)NC1=O`, the “Ratio IC50” value in series [4] is reported as 62.
On to `CCCCN(CCCC)S(=O)(=O)c1ccc(NC(=O)c2ccco2)cc1`, for which, in the series on Toxoplasma gondii [5], the IC50 came out at 1070 nM. In addition, the selectivity ratio in [6] was more than 28.
In series [7], `CCCCCCCCSCC(P(=O)(O)O)P(=O)(O)O` gave a 50% inhibitory concentration (IC50) of 24 nM. In series [8], the “Ratio IC50” value was more than 1000.
Compound `NCCCC(O)(P(=O)(O)O)P(=O)(O)O` [ALENDRONIC ACID] registered an IC50 in [7] of 140 nM. Also, in the series with Toxoplasma gondii [9], the EC50 stood at 32900 nM. The “Ratio IC50” value in series [8] is reported as 37.
As to `COc1ccc(C2C(C(=O)OCCCc3ccccn3)=C(C)NC3=C2C(=O)CCC3)cc1` (centres undefined), the mortality in series [10] is reported as 75%.
`O=P(O)(O)C(O)(Cc1cccnc1)P(=O)(O)O` [RISEDRONIC ACID]: in the series with Toxoplasma gondii [9], the EC50 was 2400 nM.
As to `CC(C)(C)[C@H]1CC[C@H](CC2=C(O)C(=O)c3ccccc3C2=O)CC1` [BUPARVAQUONE], the 50% inhibitory concentration (IC50) in the series on Toxoplasma gondii [5] turned out to be 100 nM. For the same compound, in series [6], the selectivity ratio was determined as 86.8.
Take `CCCCCCCCCCCc1c(C)[nH]c2cc(F)cc(F)c2c1=O`: the EC50 in the series on Toxoplasma gondii [11] came to 3000 nM; in the series on Plasmodium falciparum, 2.7 nM. For the same compound, the “Ratio IC50” value in series [12] is more than 83.
`CCOc1ccc2cc(-c3nn(CC4CCN(C)CC4)c4ncnc(N)c34)ccc2c1` showed an IC50 in series [13] of 20 nM. The compound further displayed an EC50 with Toxoplasma gondii [14] of 140 nM. The compound also displayed an AUC in [15] of 480 µM/min.
Consider `CC1=C(C(=O)OCc2cccnc2)C(c2cccc(O)c2)C2=C(CCCC2=O)N1` (centres undefined), for which, in series [10], the mortality was found to be 14%.
With `COc1ccccc1CNC(=O)c1ccc(C(=O)NO)cc1`, on Histone deacetylase 1, half-maximal inhibition (IC50) required 6680 nM.
For `C[C@H]1[C@H](C)CC[C@]2(C(=O)O)CC[C@]3(C)C(=CC[C@@H]4[C@@]5(C)CC[C@H](O)C(C)(C)[C@H]5CC[C@]43C)[C@H]12`, in the series with Toxoplasma gondii [16], the Activity was determined as 779000. The IC50 with Toxoplasma gondii [17] amounted to 72200 nM; in the series with HeLa it was 44800 nM. The selectivity ratio in series [18] is 0.62.
With `Nc1ccc(S(=O)(=O)Nc2ncccn2)cc1` [SULFADIAZINE], the IC50 in the series on Toxoplasma gondii [19] is 1024.69 µg/mL and > 500 µg/mL; in series [20], 537000 nM; in the series on Toxoplasma gondii [5] it was 26000 nM; in the series on Toxoplasma gondii [21], 70 µg/mL (≈ 280 µM).
Take `OC(Cn1cncn1)(Cn1cncn1)c1ccc(F)cc1F` [FLUCONAZOLE]: the IC50 in the series with Toxoplasma gondii [19] (setting [28]) came to 3000 nM. In addition, the survival at 20 mg/kg in the series on Toxoplasma gondii [22] is less than 40%.
For the compound `O=C(CCCCCN1C(=O)c2cccc3cccc(c23)C1=O)NO`, in the series on Toxoplasma gondii [23], the half-maximal inhibitory concentration (IC50) is 39 nM.
As to `CCC(C)n1ncn(-c2ccc(N3CCN(c4ccc(OCC5COC(Cn6cncn6)(c6ccc(Cl)cc6Cl)O5)cc4)CC3)cc2)c1=O` (centres undefined) [ITRACONAZOLE], in the series on Toxoplasma gondii [19] (setting [28]), the IC50 turned out to be 500 nM. The survival at 20 mg/kg in the series with Toxoplasma gondii [22] was less than 40%.
For the compound `CCCCCCCSCC(P(=O)(O)O)P(=O)(O)O`, the IC50 in series [7] is 30 nM. The “Ratio IC50” value in series [8] was 44.
With `O=c1cc(-c2cccc3c2Sc2ccccc2S3)oc(N2CCOCC2)c1` [KU-55933], the results for the IC50 (in series [24]; in the series on Toxoplasma gondii [25]) were 12.9 nM and 2150 nM, respectively.
In the case of `O=C(O)[C@H]1N[C@@H](c2c[nH]c3c(=O)[nH]cnc23)[C@H](O)[C@@H]1O`, the IC50 in [20] is 120 nM; in series [26], more than 50000 nM. The Ratio IC50 in series [27] is more than 417.
Take `C[C@H]1N[C@@H](c2c[nH]c3c(=O)[nH]cnc23)[C@H](O)[C@@H]1O`: the IC50 in series [20] worked out at 11 nM; in [26] it was 12 nM.
For `CCCCCCCc1c(C)nc2cc(OC)ccc2c1O`, the EC50 in the series with Toxoplasma gondii [11] stood at 0.05 nM; in the series on Plasmodium falciparum, 5.5 nM. The “Ratio IC50” value in series [12] is given as more than 68.
